Test results as given in PubChem BioAssay AID264 (DTP/NCI, 2004).
Results filed as inconclusive are left out.

Test system: nude mice, LX-1 lung xenograft intrarenal, tumor weight T/C
Assay: NCI In Vivo Anticancer Drug Screen. Data for tumor model Human Lung LX-1 Xenograft (intrarenal inoculation) in NU/NU Swiss (nude) mice
Conditions: endpoint: mean tumor weight change, higher = larger tumour
Outline: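 Antitumor effect is expressed as a ratio: the mean tumor measurement of the drug-treated group relative to that of the vehicle-dosed control group.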

[1] = dose: 300.0 mg/kg/injection, schedule: Q04DX003 (sc), vehicle: Klucel (hydroxypropylcellulose) (HPC)
[2] = dose: 600.0 mg/kg/injection, schedule: Q04DX003 (sc), vehicle: Klucel (hydroxypropylcellulose) (HPC)
[3] = dose: 1200.0 mg/kg/injection, schedule: Q04DX003 (sc), vehicle: Klucel (hydroxypropylcellulose) (HPC)
[4] = dose: 300.0 mg/kg/injection, schedule: Q04DX003 (sc), vehicle: saline with Tween-80
[5] = dose: 600.0 mg/kg/injection, schedule: Q04DX003 (sc), vehicle: saline with Tween-80
[6] = dose: 1200.0 mg/kg/injection, schedule: Q04DX003 (sc), vehicle: saline with Tween-80
[7] = dose: 150.0 mg/kg/injection, schedule: Q04DX003 (sc), vehicle: saline
[8] = dose: 300.0 mg/kg/injection, schedule: Q04DX003 (sc), vehicle: saline
[9] = dose: 600.0 mg/kg/injection, schedule: Q04DX003 (sc), vehicle: saline
[10] = dose: 200.0 mg/kg/injection, schedule: Q01DX010 (sc), vehicle: saline with Tween-80
[11] = dose: 12.5 mg/kg/injection, schedule: Q01DX010 (sc), vehicle: saline
[12] = dose: 25.0 mg/kg/injection, schedule: Q01DX010 (sc), vehicle: saline
[13] = dose: 50.0 mg/kg/injection, schedule: Q01DX010 (sc), vehicle: saline
[14] = dose: 100.0 mg/kg/injection, schedule: Q01DX010 (sc), vehicle: saline
[15] = dose: 300.0 mg/kg/injection, schedule: Q04DX003 (sc), vehicle: suspension in saline
[16] = dose: 600.0 mg/kg/injection, schedule: Q04DX003 (sc), vehicle: suspension in saline
[17] = dose: 1200.0 mg/kg/injection, schedule: Q04DX003 (sc), vehicle: suspension in saline
[18] = dose: 2400.0 mg/kg/injection, schedule: Q04DX003 (sc), vehicle: suspension in saline

`C=C1C(=O)OCC1C(=O)O` (stereo unspecified) was tested, and the T/C (dose: 50.0 mg/kg/injection, schedule: Q04DX003 (sc), vehicle: suspension in saline) was 123 % of control, the T/C (dose: 100.0 mg/kg/injection, schedule: Q04DX003 (sc), vehicle: suspension in saline) was 95 % of control and the T/C (dose: 200.0 mg/kg/injection, schedule: Q04DX003 (sc), vehicle: suspension in saline) was 99 % of control.
For `COc1cc(OC)c(OC)cc1/C=C\c1ccnc2ccccc12`, the T/C [1] was 62 % of control, the T/C [2] was 82 % of control and the T/C [3] was 90 % of control. The T/C (dose: 2400.0 mg/kg/injection, schedule: Q04DX003 (sc), vehicle: Klucel (hydroxypropylcellulose) (HPC)) was 81 % of control.
With `CC(=O)Nc1ccc(S(=O)(=O)CO)cc1` the T/C [4] was 90 % of control, the T/C [5] was 66 % of control and the T/C [6] was 96 % of control. The T/C (dose: 2400.0 mg/kg/injection, schedule: Q04DX003 (sc), vehicle: saline with Tween-80) was 67 % of control.
In the case of `CC(=O)NC(C=O)OCC=O` (stereo unspecified), the T/C (dose: 100.0 mg/kg/injection, schedule: Q04DX003 (sc), vehicle: water) is reported as 116 % of control, the T/C (dose: 200.0 mg/kg/injection, schedule: Q04DX003 (sc), vehicle: water) is reported as 112 % of control and the T/C (dose: 400.0 mg/kg/injection, schedule: Q04DX003 (sc), vehicle: water) is reported as 121 % of control.
`COC1C(OC(=O)/C=C/C=C/C=C/C=C/C(=O)O)CCC2(CO2)C1C1(C)OC1CC=C(C)C` (stereo unspecified) was tested, and the T/C (dose: 75.0 mg/kg/injection, schedule: Q04DX003 (sc), vehicle: saline) was 76 % of control, the T/C [7] was 81 % of control and the T/C [8] was 75 % of control. For the same compound, the T/C [9] was 66 % of control.
With `O=Cc1ccc([N+](=O)[O-])s1` the T/C (dose: 25.0 mg/kg/injection, schedule: Q01DX010 (sc), vehicle: saline with Tween-80) was 94 % of control, the T/C (dose: 50.0 mg/kg/injection, schedule: Q01DX010 (sc), vehicle: saline with Tween-80) was 105 % of control and the T/C (dose: 100.0 mg/kg/injection, schedule: Q01DX010 (sc), vehicle: saline with Tween-80) was 81 % of control. For the same compound, the T/C [10] was 30 % of control.
`[Cl][Sn]([c]1ccccc1)[c]1ccccc1` was tested, and the T/C [7] was 92 % of control and the T/C [9] was 84 % of control.
`CS(=O)(=O)OCCN(CCOS(C)(=O)=O)c1ccc(C=O)cc1` was tested, and the T/C [11] was 188 % of control, the T/C [12] was 71 % of control and the T/C [13] was 33 % of control.
In the case of `COc1cccc2c1C(=O)c1c(O)c3c(c(O)c1C2=O)C[C@H](O)C[C@@H]3OC1CC(N)C(O)C(C)O1` (stereo partly specified), the T/C (dose: 6.25 mg/kg/injection, schedule: Q01DX010 (sc), vehicle: saline) is reported as 25 % of control, the T/C [11] is reported as 336 % of control and the T/C [12] is reported as 101 % of control.
In the case of `CN1N=C(N)c2cn(C3OC(COP(=O)(O)O)C(O)C3O)c3ncnc1c23` (stereo unspecified), the T/C (dose: 12.5 mg/kg/injection, schedule: Q01DX010 (sc), vehicle: water) is reported as 107 % of control, the T/C (dose: 25.0 mg/kg/injection, schedule: Q01DX010 (sc), vehicle: water) is reported as 109 % of control and the T/C (dose: 50.0 mg/kg/injection, schedule: Q01DX010 (sc), vehicle: water) is reported as 81 % of control.
`NC1=NCN(C2OC(CO)C(O)C2O)C(=O)N1` (stereo unspecified) was tested, and the T/C [12] was 117 % of control, the T/C [13] was 174 % of control and the T/C (dose: 83.3 mg/kg/injection, schedule: Q04DX003 (ip), vehicle: saline) was 117 % of control. For the same compound, the T/C (dose: 100.0 mg/kg/injection, schedule: Q01DX010 (ip), vehicle: saline) was 62 % of control, the T/C [14] was 86 % of control and the T/C (dose: 166.66 mg/kg/injection, schedule: Q04DX003 (ip), vehicle: saline) was 89 % of control. For the same compound, the T/C (dose: 333.33 mg/kg/injection, schedule: Q04DX003 (ip), vehicle: saline) was 56 % of control and the T/C (dose: 666.65 mg/kg/injection, schedule: Q04DX003 (ip), vehicle: saline) was 39 % of control.
`CC(=O)OCC(=O)[C@@]12OC(C)(C)O[C@@H]1C[C@H]1[C@@H]3CC(C=O)=C4C=C(OCCCl)CC[C@]4(C)[C@@]3(F)[C@@H](O)C[C@@]12C` was tested, and the T/C (dose: 25.0 mg/kg/injection, schedule: Q04DX003 (sc), vehicle: Klucel (hydroxypropylcellulose) (HPC)) was 79 % of control and the T/C (dose: 50.0 mg/kg/injection, schedule: Q04DX003 (sc), vehicle: Klucel (hydroxypropylcellulose) (HPC)) was 72 % of control.
With `C1OCN2CSCC12` (stereo unspecified) the T/C (dose: 50.0 mg/kg/injection, schedule: Q04DX003 (sc), vehicle: saline with Tween-80) was 76 % of control, the T/C (dose: 100.0 mg/kg/injection, schedule: Q04DX003 (sc), vehicle: saline with Tween-80) was 103 % of control and the T/C (dose: 200.0 mg/kg/injection, schedule: Q04DX003 (sc), vehicle: saline with Tween-80) was 71 % of control. For the same compound, the T/C (dose: 400.0 mg/kg/injection, schedule: Q04DX003 (sc), vehicle: saline with Tween-80) was 63 % of control.
For `Cc1nnc2ncccn12`, the T/C (dose: 100.0 mg/kg/injection, schedule: Q04DX003 (sc), vehicle: saline) was 112 % of control and the T/C (dose: 200.0 mg/kg/injection, schedule: Q04DX003 (sc), vehicle: saline) was 107 % of control.
`C1CNCOC1` was tested, and the T/C [8] was 90 % of control.
For `CC(C)CCCCCCCCCCCCC(=O)NCC(=O)NC1C(O)C(O)C(Nc2ncnc3nc[nH]c23)OC1C(O)CO` (stereo unspecified), the T/C (dose: 0.4 mg/kg/injection, schedule: Q01DX010 (sc), vehicle: saline) was 84 % of control, the T/C (dose: 0.8 mg/kg/injection, schedule: Q01DX010 (sc), vehicle: saline) was 62 % of control and the T/C (dose: 1.6 mg/kg/injection, schedule: Q01DX010 (sc), vehicle: saline) was 48 % of control.
For `c1ccc(CN2CCOC2)cc1`, the T/C [13] was 81 % of control and the T/C [14] was 165 % of control.
For `Cc1ccccc1SSc1ccccc1C`, the T/C [10] was 268 % of control and the T/C (dose: 400.0 mg/kg/injection, schedule: Q01DX010 (sc), vehicle: saline with Tween-80) was 99 % of control.
For `CCCN1COC(OCC)C(C)(C)C1` (stereo unspecified), the T/C (dose: 150.0 mg/kg/injection, schedule: Q04DX003 (sc), vehicle: saline with Tween-80) was 92 % of control, the T/C [4] was 90 % of control and the T/C [5] was 106 % of control. For the same compound, the T/C [6] was 107 % of control.
In the case of `C[CH2][Ge]1([CH2]C)[CH2]CC2(CCN(CCCN(C)C)C2)C[CH2]1`, the T/C [7] is reported as 89 % of control.
`COC1/C=C/O[C@@]2(C)Oc3c(C)c(O)c4c(O)c(cc(O)c4c3C2=O)NC(=O)/C(C)=C\C=C\[C@H](C)C(O)[C@@H](C)[C@@H](O)[C@@H](C)[C@H](OC(C)=O)[C@@H]1C` (stereo partly specified) was tested, and the T/C [15] was 60 % of control, the T/C [16] was 84 % of control and the T/C [17] was 53 % of control. The T/C [18] was 64 % of control.
For `O=C([CH-]C(=O)C(F)(F)F)c1ccccc1.O=C([CH-]C(=O)C(F)(F)F)c1ccccc1.O=C([CH-]C(=O)C(F)(F)F)c1ccccc1.O=C([CH-]C(=O)C(F)(F)F)c1ccccc1.[Eu+3].c1ccncc1`, the T/C (dose: 50.0 mg/kg/injection, schedule: Q01DX010 (sc), vehicle: Klucel (hydroxypropylcellulose) (HPC)) was 85 % of control, the T/C (dose: 200.0 mg/kg/injection, schedule: Q01DX010 (sc), vehicle: Klucel (hydroxypropylcellulose) (HPC)) was 49 % of control and the T/C (dose: 400.0 mg/kg/injection, schedule: Q01DX010 (sc), vehicle: Klucel (hydroxypropylcellulose) (HPC)) was 40 % of control. For the same compound, the T/C (dose: 800.0 mg/kg/injection, schedule: Q01DX010 (sc), vehicle: Klucel (hydroxypropylcellulose) (HPC)) was 65 % of control.
For `C=CS(=O)(=O)c1ccccc1`, the T/C [12] was 57 % of control, the T/C [13] was 65 % of control and the T/C [14] was 29 % of control.
In the case of `O=C1N[C@@H]([C@H]2CC[C@H](Cl)CN2)C(=O)N[C@H]1[C@H]1CC[C@H](Cl)CN1`, the T/C (dose: 0.63 mg/kg/injection, schedule: Q01DX010 (sc), vehicle: water) is reported as 124 % of control, the T/C (dose: 1.25 mg/kg/injection, schedule: Q01DX010 (sc), vehicle: water) is reported as 98 % of control and the T/C (dose: 5.0 mg/kg/injection, schedule: Q01DX010 (sc), vehicle: water) is reported as 22 % of control. The T/C (dose: 5.0 mg/kg/injection, schedule: Q04DX003 (sc), vehicle: water) was 70 % of control and the T/C (dose: 10.0 mg/kg/injection, schedule: Q04DX003 (sc), vehicle: water) was 58 % of control.
`c1cc[c]([Sn]([NH]c2ncnc3[nH]cnc23)([NH]c2ncnc3[nH]cnc23)[c]2ccccc2)cc1` was tested, and the T/C [15] was 85 % of control, the T/C [16] was 84 % of control and the T/C [17] was 82 % of control. For the same compound, the T/C [18] was 64 % of control.
With `C1OC1CN1CCN(CC2CO2)CC1` (stereo unspecified) the T/C (dose: 16.0 mg/kg/injection, schedule: Q01DX010 (sc), vehicle: saline) was 27 % of control.
For `Cn1cc(C2NC(=O)c3ccccc3N2)c2ccccc21` (stereo unspecified), the T/C [1] was 31 % of control, the T/C [2] was 32 % of control and the T/C [3] was -36 % of control.
